The values below come from US7964629B2, “Inhibitors of isoprenylcysteine carboxyl methyltransferase” (Duke Universtiy, priority 2005, dated 2011).

T1 sequence (O60725 whole entry): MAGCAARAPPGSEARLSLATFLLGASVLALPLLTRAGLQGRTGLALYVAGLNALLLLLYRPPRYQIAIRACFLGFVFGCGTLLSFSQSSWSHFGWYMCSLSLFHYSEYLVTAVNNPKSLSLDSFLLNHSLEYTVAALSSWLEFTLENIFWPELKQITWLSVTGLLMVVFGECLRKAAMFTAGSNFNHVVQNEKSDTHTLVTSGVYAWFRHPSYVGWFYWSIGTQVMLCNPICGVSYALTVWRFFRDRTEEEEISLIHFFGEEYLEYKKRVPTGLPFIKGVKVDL

One assay addresses T1, recombinant human Icmt (Homo sapiens, UniProt O60725).
T1 construct: recombinant baculovirus containing the entire open reading frame of the human Icmt cDNA; made in house; host or cells: Sf9 insect cells (baculovirus); membrane fraction used
The assay is described as follows: Icmt assay: [3H]methyl incorporation from [3H]AdoMet into BFC.
Conditions: not given
It is filed as biochemical.
One may read the IC50 as the concentration needed to halve the response being measured. For `CCOc1cccc(-c2ccc3c(c2)c(CC=O)cn3Cc2cccc(C(F)(F)F)c2)c1` [9F10/A119038], the half-maximal inhibitory concentration (IC50) turned out to be 6 µM.

The same assay, now with this note: Table 1, R1 substituent x scaffold matrix; read-out: IC50.
Regarding `CC(C)Cn1cc(CC(N)=O)c2cc(-c3cccc(F)c3)ccc21` [(a1)/drawing 3], the IC50 stood at 13.7 ± 0.3 µM.

The assay is the same for the next values; noted with them: Table 2, no pre-incubation; read-out: IC50.
In the case of `CC(C)(C)c1ccc(Cn2cc(CC=O)c3cc(-c4cc(C(F)(F)F)cc(C(F)(F)F)c4)ccc32)cc1` [9B4/A119024], the half-inhibitory concentration (IC50) worked out at 4 µM.
Regarding `CCOc1cccc(-c2ccc3c(c2)c(CC=O)cn3Cc2ccc(C(C)(C)C)cc2)c1` [9B6/A119030], the IC50 came out at 3 µM.
Turning to `O=CCc1cn(Cc2ccccc2)c2ccc(-c3ccc(Oc4ccccc4)cc3)cc12` [9B8/A119007], the IC50 came out at 7 µM.
Consider `CC(C)(C)c1ccc(Cn2cc(CC=O)c3cc(-c4cccc(F)c4)ccc32)cc1` [9B12/A119029], for which the IC50 stood at 4 µM.
Regarding `O=CCc1cn(CCCOc2ccccc2)c2ccc(-c3ccc(Oc4ccccc4)cc3)cc12` [9B20/A119055], the IC50 stood at 14 µM.
`CC(C)Cn1cc(CC=O)c2cc(-c3cc(C(F)(F)F)cc(C(F)(F)F)c3)ccc21` [9B22/A119064]: the IC50 was 8 µM.
For `O=CCc1cn(CCCOc2ccccc2)c2ccc(-c3cc(C(F)(F)F)cc(C(F)(F)F)c3)cc12` [9D10/A119048], the half-inhibitory concentration (IC50) is > 30 µM.
For `O=CCc1cn(Cc2cccc(C(F)(F)F)c2)c2ccc(-c3ccc(Oc4ccccc4)cc3)cc12` [9D12/A119039], the half-maximal inhibitory concentration (IC50) was 7 µM.
With `CCCCCCCCn1cc(CC=O)c2cc(-c3ccc(Oc4ccccc4)cc3)ccc21` [9D18/A119047], the concentration for half-maximal inhibition (IC50) came to 5 µM.
Consider `CCCCCCn1cc(CC=O)c2cc(-c3ccc(Oc4ccccc4)cc3)ccc21` [9D20/A110023], for which the concentration for half-maximal inhibition (IC50) was 20 µM.
Still for that read-out and setting: the same measure for `COc1ccccc1-c1ccc2c(c1)c(CC=O)cn2CC1CC1` [9F8/A119059]: > 30 µM.
In the case of `CCCCCCn1cc(CC=O)c2cc(-c3ccc(F)c(Cl)c3)ccc21` [9F18/A119017], the half-inhibitory concentration (IC50) was determined as 7 µM.
Regarding `CCCCCCCCn1cc(CC=O)c2cc(-c3cccc(OCC)c3)ccc21` [9F20/A119046], the IC50 is 2 µM.
As for `Cc1ccc(-c2ccc3c(c2)c(CC=O)cn3Cc2cccc(C(F)(F)F)c2)cc1` [9H4/A119034], the IC50 was determined as 7 µM.
On to `O=CCc1cn(Cc2ccccc2)c2ccc(-c3cc(C(F)(F)F)cc(C(F)(F)F)c3)cc12` [9H6/A119000], for which the half-inhibitory concentration (IC50) was 18 µM.
`CCCCCCn1cc(CC=O)c2cc(-c3cccc(OCC)c3)ccc21` [9H10/A119022]: the half-maximal inhibitory concentration (IC50) is 7 µM.
As to `O=CCc1cn(CC2CC2)c2ccc(-c3cc(C(F)(F)F)cc(C(F)(F)F)c3)cc12` [9H12/A119056], the IC50 is 20 µM.
Consider `O=CCc1cn(Cc2cccc(C(F)(F)F)c2)c2ccc(-c3ccc(F)c(Cl)c3)cc12` [9H14/A119033], for which the half-inhibitory concentration (IC50) worked out at 6 µM.
Turning to `O=CCc1cn(CC2CC2)c2ccc(-c3ccc(F)c(Cl)c3)cc12` [9J8/A119057], the concentration for half-maximal inhibition (IC50) was > 30 µM.
As to `CCCCCCCCn1cc(CC=O)c2cc(-c3ccccc3OC)ccc21` [9J16/A119043], the concentration for half-maximal inhibition (IC50) was 5 µM.
As for `CCCCCCCCn1cc(CC=O)c2cc(-c3cccc(F)c3)ccc21` [9J18/A119045], the half-maximal inhibitory concentration (IC50) turned out to be 3 µM.
`CCCCCCn1cc(CC=O)c2cc(-c3cccc(C)c3)ccc21` [9J22/A119020]: the 50% inhibitory concentration (IC50) was 7 µM.
With `CCCCCCn1cc(CC=O)c2cc(-c3ccc(C)cc3)ccc21` [9L4/A119018], the concentration for half-maximal inhibition (IC50) is 23 µM.
For `CCCCCCCCn1cc(CC=O)c2cc(-c3ccc(C)cc3)ccc21` [9L6/A119042], the half-inhibitory concentration (IC50) was found to be 9 µM.
Turning to `CCCCCCCCn1cc(CC=O)c2cc(-c3ccc(F)c(Cl)c3)ccc21` [9L8/A119041], the half-inhibitory concentration (IC50) came out at 1 µM.
As for `O=CCc1cn(Cc2cccc(C(F)(F)F)c2)c2ccc(-c3cc(C(F)(F)F)cc(C(F)(F)F)c3)cc12` [9L10/A119032], the IC50 is > 30 µM.
Same read-out and setting: as for `CCCCCCCCn1cc(CC=O)c2cc(-c3cc(C(F)(F)F)cc(C(F)(F)F)c3)ccc21` [9L22/A119040], the figure is > 30 µM.
In the case of `CC(C)(C)c1ccc(Cn2cc(CC=O)c3cc(-c4ccc(F)c(Cl)c4)ccc32)cc1` [9N6/A119025], the IC50 was 5 µM.
For the compound `Cc1ccc(-c2ccc3c(c2)c(CC=O)cn3CC2CC2)cc1` [9N8/A119058], the 50% inhibitory concentration (IC50) is > 30 µM.
With `O=CCc1cn(Cc2ccccc2)c2ccc(-c3ccc(F)c(Cl)c3)cc12` [9N10/A119001], the half-inhibitory concentration (IC50) amounted to 9 µM.
For `COc1ccccc1-c1ccc2c(c1)c(CC=O)cn2Cc1ccc2ccccc2c1` [9N12/A119075], the IC50 was found to be 18 µM.
The same measure, in the same setting: as for `O=CCc1cn(Cc2ccc3ccccc3c2)c2ccc(-c3ccc(Oc4ccccc4)cc3)cc12` [9N14/A119079], the figure is 20 µM; as for `Cc1cccc(-c2ccc3c(c2)c(CC=O)cn3Cc2ccc3ccccc3c2)c1` [9N22/A119076], 20 µM.

Still in this assay, the particulars now being: Table 2, pre-incubation of enzyme with inhibitor; read-out: IC50 pre-inc.
As for `CCCCCCCCn1cc(CC=O)c2cc(-c3cccc(F)c3)ccc21` [9J18/A119045], the half-inhibitory concentration (IC50) is < 0.3 µM.

Staying with this assay, now noted: Table 3, pre-incubation with Icmt for 30 min at 37° C.; read-out: IC50 PI (converted).
On to `Cc1cccc(-c2ccc3c(c2)c(CC(N)=O)cn3CC(C)C)c1` [(a1)/drawing 2], for which the IC50 was 17.7 µM.
On the same count and under the same terms, as for `Cc1cccc(-c2ccc3c(c2)c(CC(N)=O)cn3CC2CC2)c1` [(b1)/drawing 2], the figure is 9.5 µM.
`CCCCCCn1cc(CC(N)=O)c2cc(-c3cccc(C)c3)ccc21` [(c1)/drawing 2]: the concentration for half-maximal inhibition (IC50) was 1.7 µM.
Consider `Cc1cccc(-c2ccc3c(c2)c(CC(N)=O)cn3Cc2ccccc2)c1` [(e1)/drawing 2], for which the IC50 was 2.4 µM.
In the case of `Cc1cccc(-c2ccc3c(c2)c(CC(N)=O)cn3Cc2cccc(C(F)(F)F)c2)c1` [(g1)/drawing 2], the IC50 was 0.71 µM.

The same assay, now with this note: standard in vitro methylation assay; read-out: Km as Icmt substrate.
For orientation: Km means the concentration of substrate that gives half-maximal velocity. Turning to “biotin-S-farnesyl-L-cysteine [BFC, reference compound]”, the Km stood at 2.1 ± 0.4 µM.
